Our source for the inhibition and IC50 values is ChEMBL document CHEMBL3739348, “Novel pyrrole derivatives as selective CHK1 inhibitors: design, regioselective synthesis and molecular modeling” (Medchemcomm, 2015).

The target of assay [1] is Protein kinase C (PKC) (Homo sapiens) (UniProt O94806+P41743+P17252+P05129+Q05655+P05771+Q05513+Q02156+P24723+Q15139+Q04759). Kind of assay: Inhibition of PKC (unknown origin) at 30 uM by microfluidic assay relative to control.
For assay [2], the target named is T1, Serine/threonine-protein kinase Chk1 (Homo sapiens) (UniProt O14757).
T1 sequence (whole entry): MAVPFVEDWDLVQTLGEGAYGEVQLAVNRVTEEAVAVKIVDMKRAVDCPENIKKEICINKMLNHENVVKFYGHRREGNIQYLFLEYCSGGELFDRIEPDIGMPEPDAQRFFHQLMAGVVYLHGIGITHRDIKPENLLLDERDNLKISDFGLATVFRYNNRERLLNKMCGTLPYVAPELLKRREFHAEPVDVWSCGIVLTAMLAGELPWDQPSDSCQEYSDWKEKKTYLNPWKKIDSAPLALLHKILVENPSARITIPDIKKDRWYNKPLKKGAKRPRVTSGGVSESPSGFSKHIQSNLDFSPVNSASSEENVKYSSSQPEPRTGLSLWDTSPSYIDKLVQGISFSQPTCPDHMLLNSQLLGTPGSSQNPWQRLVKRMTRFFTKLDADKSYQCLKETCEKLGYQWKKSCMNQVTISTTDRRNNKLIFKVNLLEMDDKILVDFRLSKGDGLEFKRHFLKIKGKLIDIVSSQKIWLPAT
As to the kind of experiment: Inhibition of CHK1 (unknown origin) at 30 uM by microfluidic assay relative to control.

Assay [3] addresses Mitogen-activated protein kinase 3 (Homo sapiens) (UniProt P27361). As to the kind of experiment: Inhibition of Erk1 (unknown origin) at 30 uM by microfluidic assay relative to control.
The target in assay [4] is Mitogen-activated protein kinase 1 (Homo sapiens) (UniProt P28482). As to the kind of experiment: Inhibition of Erk2 (unknown origin) at 30 uM by microfluidic assay relative to control.
In assay [5] the target is Glycogen synthase kinase-3 (Homo sapiens) (UniProt P49840+P49841). As to the kind of experiment: Inhibition of GSK3 (unknown origin) at 30 uM by microfluidic assay relative to control. The assay is classed as protein assay.
For assay [6], the target named is Mitogen-activated protein kinase 14 (Homo sapiens) (UniProt Q16539). Kind of assay: Inhibition of p38a (unknown origin) at 30 uM by microfluidic assay relative to control.
In assay [7] the target is Tyrosine-protein kinase ABL1 (Homo sapiens) (UniProt P00519). As to the kind of experiment: Inhibition of ABL (unknown origin) at 30 uM by microfluidic assay relative to control.
The target of assay [8] is Tyrosine-protein kinase Fyn (Homo sapiens) (UniProt P06241). As to the kind of experiment: Inhibition of FYN (unknown origin) at 30 uM by microfluidic assay relative to control.
Assay [9] concerns the target Insulin receptor (Homo sapiens) (UniProt P06213). As to the kind of experiment: Inhibition of InsR (unknown origin) at 30 uM by microfluidic assay relative to control.
The target in assay [10] is Tyrosine-protein kinase Lyn (Homo sapiens) (UniProt P07948). Kind of assay: Inhibition of LYN (unknown origin) at 30 uM by microfluidic assay relative to control.
Assay [11] has as its target Tyrosine-protein kinase Lck (Homo sapiens) (UniProt P06239). Kind of assay: Inhibition of LCK (unknown origin) at 30 uM by microfluidic assay relative to control.
For assay [12], the target named is Hepatocyte growth factor receptor (Homo sapiens) (UniProt P08581). Kind of assay: Inhibition of MET (unknown origin) at 30 uM by microfluidic assay relative to control.
In assay [13] the target is Proto-oncogene tyrosine-protein kinase Src (Homo sapiens) (UniProt P12931). Kind of assay: Inhibition of SRC (unknown origin) at 30 uM by microfluidic assay relative to control.
For assay [14], the target named is Epidermal growth factor receptor (Homo sapiens, UniProt P00533). As to the kind of experiment: Inhibition of EGFR (unknown origin) by microfluidic assay relative to control.
Assay [15] addresses T2, Serine/threonine-protein kinase Chk1 (Homo sapiens, UniProt O14757).
T2 sequence (O14757 whole entry): T1 sequence (whole entry)
As to the kind of experiment: Inhibition of CHK1 (unknown origin) by microfluidic assay relative to control.

Sequence of Tyrosine-protein kinase Fyn (Homo sapiens) (P06241 2-537 limits assumed): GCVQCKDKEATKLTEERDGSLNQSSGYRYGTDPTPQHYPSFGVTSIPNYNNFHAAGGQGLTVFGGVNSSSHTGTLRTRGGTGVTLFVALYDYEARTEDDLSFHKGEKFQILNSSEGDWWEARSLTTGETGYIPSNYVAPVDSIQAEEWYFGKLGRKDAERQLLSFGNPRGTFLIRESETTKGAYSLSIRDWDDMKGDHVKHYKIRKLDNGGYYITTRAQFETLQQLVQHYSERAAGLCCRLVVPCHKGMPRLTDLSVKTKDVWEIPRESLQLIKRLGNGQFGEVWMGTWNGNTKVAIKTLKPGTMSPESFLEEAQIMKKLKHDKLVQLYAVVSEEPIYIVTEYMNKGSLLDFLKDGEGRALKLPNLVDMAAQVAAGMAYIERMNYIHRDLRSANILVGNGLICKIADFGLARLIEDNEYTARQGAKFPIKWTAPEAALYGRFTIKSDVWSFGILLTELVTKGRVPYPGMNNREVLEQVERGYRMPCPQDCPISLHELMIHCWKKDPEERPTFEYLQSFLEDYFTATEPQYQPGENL
Sequence of Insulin receptor (Homo sapiens) (P06213 28-758 limits assumed): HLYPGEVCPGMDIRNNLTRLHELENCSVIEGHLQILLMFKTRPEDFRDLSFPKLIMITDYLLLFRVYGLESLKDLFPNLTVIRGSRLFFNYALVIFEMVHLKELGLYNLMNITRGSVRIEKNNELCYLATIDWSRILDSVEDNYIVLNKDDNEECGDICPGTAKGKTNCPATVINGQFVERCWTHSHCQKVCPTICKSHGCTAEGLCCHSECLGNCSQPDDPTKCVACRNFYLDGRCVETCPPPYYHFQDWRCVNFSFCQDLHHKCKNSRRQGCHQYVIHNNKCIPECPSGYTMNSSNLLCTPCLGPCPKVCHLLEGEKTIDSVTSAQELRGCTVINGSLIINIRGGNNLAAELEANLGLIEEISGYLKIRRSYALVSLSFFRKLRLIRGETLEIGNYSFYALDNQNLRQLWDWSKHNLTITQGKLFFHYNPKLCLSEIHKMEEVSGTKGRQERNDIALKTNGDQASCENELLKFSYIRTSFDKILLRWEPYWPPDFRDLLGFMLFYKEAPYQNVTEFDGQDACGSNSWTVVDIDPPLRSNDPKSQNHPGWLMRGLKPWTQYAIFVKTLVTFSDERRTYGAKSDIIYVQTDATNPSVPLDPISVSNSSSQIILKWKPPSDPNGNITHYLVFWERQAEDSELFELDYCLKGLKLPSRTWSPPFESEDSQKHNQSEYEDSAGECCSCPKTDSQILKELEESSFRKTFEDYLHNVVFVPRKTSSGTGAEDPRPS
Sequence of Insulin receptor (Homo sapiens) (P06213 763-1382 limits assumed): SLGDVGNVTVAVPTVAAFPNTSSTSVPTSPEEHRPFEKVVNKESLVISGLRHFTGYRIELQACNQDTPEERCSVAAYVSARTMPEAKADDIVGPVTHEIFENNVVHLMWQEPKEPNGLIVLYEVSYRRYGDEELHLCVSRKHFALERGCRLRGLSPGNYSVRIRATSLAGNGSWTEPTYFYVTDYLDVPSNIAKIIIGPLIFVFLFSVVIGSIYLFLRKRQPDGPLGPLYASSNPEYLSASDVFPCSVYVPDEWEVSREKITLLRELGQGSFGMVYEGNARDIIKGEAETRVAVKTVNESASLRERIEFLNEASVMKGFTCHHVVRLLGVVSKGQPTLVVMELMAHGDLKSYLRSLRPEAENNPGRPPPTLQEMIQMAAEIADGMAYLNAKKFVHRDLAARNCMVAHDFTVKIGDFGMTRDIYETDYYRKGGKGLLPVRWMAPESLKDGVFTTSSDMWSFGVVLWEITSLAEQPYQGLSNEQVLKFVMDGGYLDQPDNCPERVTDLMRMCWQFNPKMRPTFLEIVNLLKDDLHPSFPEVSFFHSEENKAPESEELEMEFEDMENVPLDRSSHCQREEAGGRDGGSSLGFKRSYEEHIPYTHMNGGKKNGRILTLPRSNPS
Sequence of Mitogen-activated protein kinase 14 (Homo sapiens) (Q16539 whole entry): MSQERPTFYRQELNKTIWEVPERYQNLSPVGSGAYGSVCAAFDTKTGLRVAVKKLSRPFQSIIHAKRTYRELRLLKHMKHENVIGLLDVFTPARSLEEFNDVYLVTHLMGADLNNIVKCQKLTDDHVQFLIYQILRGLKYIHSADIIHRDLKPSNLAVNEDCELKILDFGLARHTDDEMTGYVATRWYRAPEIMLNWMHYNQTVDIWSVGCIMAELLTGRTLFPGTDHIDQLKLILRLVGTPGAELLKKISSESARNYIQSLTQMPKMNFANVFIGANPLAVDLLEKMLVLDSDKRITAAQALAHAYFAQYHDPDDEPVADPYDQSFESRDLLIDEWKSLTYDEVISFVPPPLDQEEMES
Sequence of Mitogen-activated protein kinase 1 (Homo sapiens) (P28482 whole entry): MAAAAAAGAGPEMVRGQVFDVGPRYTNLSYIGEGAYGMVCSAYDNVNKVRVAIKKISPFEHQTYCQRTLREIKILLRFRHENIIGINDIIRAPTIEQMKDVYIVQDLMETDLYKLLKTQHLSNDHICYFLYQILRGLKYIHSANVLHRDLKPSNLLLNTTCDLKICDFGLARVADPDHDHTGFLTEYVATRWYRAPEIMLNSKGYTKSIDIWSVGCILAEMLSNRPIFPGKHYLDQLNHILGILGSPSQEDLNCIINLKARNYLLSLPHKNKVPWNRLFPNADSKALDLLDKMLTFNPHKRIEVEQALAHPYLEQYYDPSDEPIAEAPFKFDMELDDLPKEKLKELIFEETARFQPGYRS
Sequence of Tyrosine-protein kinase Lyn (Homo sapiens) (P07948 2-512 limits assumed): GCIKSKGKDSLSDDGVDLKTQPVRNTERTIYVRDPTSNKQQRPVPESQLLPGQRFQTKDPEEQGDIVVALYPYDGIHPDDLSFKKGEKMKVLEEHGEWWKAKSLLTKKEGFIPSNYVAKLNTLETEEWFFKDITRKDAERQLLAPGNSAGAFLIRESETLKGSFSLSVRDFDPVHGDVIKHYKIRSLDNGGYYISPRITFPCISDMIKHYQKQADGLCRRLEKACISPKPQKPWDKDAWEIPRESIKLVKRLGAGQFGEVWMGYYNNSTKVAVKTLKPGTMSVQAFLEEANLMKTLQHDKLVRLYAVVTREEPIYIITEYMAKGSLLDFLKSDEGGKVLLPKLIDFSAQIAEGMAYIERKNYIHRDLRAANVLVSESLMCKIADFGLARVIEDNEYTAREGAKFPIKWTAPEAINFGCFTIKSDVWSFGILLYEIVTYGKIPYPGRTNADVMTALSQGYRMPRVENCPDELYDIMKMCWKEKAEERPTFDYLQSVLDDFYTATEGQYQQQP
Sequence of Epidermal growth factor receptor (P00533 whole entry): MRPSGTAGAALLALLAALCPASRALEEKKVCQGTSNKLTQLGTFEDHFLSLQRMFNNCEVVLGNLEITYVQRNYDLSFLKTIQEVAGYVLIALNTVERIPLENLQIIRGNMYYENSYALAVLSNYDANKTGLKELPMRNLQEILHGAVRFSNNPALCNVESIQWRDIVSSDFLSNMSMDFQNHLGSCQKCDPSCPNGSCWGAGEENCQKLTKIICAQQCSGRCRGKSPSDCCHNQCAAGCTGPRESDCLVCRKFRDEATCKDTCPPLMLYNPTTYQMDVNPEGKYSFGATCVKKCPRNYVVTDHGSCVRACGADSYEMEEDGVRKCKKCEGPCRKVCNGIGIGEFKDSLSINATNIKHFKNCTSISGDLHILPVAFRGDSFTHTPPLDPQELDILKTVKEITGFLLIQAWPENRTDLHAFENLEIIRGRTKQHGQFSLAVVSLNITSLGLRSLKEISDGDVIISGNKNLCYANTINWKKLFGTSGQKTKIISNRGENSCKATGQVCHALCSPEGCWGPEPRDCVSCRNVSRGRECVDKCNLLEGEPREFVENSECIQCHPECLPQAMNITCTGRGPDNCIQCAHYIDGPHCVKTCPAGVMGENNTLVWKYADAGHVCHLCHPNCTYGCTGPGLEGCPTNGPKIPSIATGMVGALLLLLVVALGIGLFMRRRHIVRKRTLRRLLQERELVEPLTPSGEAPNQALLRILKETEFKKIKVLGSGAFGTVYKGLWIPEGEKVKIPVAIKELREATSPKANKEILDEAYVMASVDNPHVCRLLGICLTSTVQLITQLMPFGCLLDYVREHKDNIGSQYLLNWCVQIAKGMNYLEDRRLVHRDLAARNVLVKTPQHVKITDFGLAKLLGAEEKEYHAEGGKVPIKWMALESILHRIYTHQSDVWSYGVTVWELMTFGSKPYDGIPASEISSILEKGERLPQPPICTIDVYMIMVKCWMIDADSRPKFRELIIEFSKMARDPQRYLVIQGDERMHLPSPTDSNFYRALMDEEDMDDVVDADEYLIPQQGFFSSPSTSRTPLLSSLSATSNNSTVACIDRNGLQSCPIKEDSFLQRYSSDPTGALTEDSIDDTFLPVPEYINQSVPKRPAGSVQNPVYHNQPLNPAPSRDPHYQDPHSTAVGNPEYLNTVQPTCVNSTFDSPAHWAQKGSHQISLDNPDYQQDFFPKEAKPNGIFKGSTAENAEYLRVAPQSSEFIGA
Sequence of Proto-oncogene tyrosine-protein kinase Src (Homo sapiens) (P12931 2-536 limits assumed): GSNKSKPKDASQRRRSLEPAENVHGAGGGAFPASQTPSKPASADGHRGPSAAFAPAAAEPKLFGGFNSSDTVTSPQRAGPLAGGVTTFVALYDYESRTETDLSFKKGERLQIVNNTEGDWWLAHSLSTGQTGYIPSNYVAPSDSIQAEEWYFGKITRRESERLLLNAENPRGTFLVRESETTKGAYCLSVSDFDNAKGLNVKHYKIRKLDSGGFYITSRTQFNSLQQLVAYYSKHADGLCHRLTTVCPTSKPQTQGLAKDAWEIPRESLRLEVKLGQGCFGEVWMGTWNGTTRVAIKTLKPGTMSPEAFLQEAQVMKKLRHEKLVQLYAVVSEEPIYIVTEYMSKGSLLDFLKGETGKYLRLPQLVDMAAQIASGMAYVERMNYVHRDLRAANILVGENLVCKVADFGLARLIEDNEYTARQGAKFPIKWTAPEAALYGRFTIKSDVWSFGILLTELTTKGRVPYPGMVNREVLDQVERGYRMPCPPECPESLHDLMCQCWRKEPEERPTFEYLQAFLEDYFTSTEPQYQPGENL

Broadly, the inhibition is the drop in the measured response relative to a control, in per cent. As a reminder, the IC50 is the midpoint of a concentration-inhibition curve. Higher therefore signals a need for much substance. For the molecule `Cc1[nH]c(-c2ccccc2)c(-c2ccccc2)c1-c1nnc(C)c2nn(-c3ccccc3)cc12`, the inhibition was determined as 13% in assay [1]; 83% in assay [2]; 6% in [3]; 32% in assay [4]; 2% in assay [5]; 4% in [6]. The inhibition was 1% in assay [7]; 12% in assay [8]; 1% in assay [9]; 3% in [10]; 43% in assay [11]; 5% in [12]. Also, the inhibition in assay [13] came out at 43%. The values for the IC50 in [14] and in assay [15] were 3890 nM and 700 nM, respectively.
With `Cc1[nH]c(-c2ccccc2)c(-c2ccccc2)c1C(=O)c1cn(-c2ccccc2)nc1-c1ccccc1`, the inhibition in [1] was 67%; in assay [2] it was 78%; in assay [3], 7%; in [4], 35%; in [5], 3%; in [6], 12%. The inhibition in assay [7] was 3%; in assay [8], 21%; in assay [9] it was 4%; in [10], 24%; in assay [11], 44%; in [12], 45%. In addition, the inhibition in assay [13] was found to be 12%. Moreover, the 50% inhibitory concentration (IC50) amounted to 2560 nM in [14] and 910 nM in assay [15].
Take `Cc1[nH]c(-c2ccccc2)c(-c2ccccc2)c1-c1ccc(NC(=O)c2ccccc2)c(=O)o1`: the inhibition in [1] amounted to 65%; in assay [2], 80%; in assay [3], 5%; in [4], 4%; in [5], 2%; in [6], 32%. Also, the inhibition turned out to be 2% in assay [7]; 21% in assay [8]; 3% in [9]; 33% in assay [10]; 34% in assay [11]; 22% in assay [12]. The inhibition in assay [13] was 12%. Moreover, the IC50 in assay [14] was determined as 2890 nM; in assay [15], 780 nM.
For the molecule `CCOC(=O)c1nn(-c2ccccc2)cc1C(=O)c1c(C)[nH]c(-c2ccccc2)c1-c1ccccc1`, the inhibition worked out at 12% in assay [1]; 85% in assay [2]; 7% in [3]; 32% in [4]; 13% in [5]; 2% in assay [6]. Besides, the inhibition in assay [7] amounted to 2%; in [8] it was 21%; in assay [9], 2%; in assay [10] it was 5%; in [11], 23%; in assay [12], 6%. This molecule also displayed an inhibition in [13] of 23%. The IC50 in assay [14] is 3220 nM; in assay [15] it was 670 nM.
As to `CC(=O)c1nn(-c2ccccc2)cc1C(=O)c1c(C)[nH]c(-c2ccccc2)c1-c1ccccc1`, the inhibition in assay [1] worked out at 33%; in assay [2], 100%; in assay [3], 3%; in [4], 21%; in assay [5] it was 12%; in assay [6] it was 3%. The inhibition came to 2% in assay [7]; 2% in [8]; 2% in [9]; 3% in assay [10]; 22% in assay [11]; 32% in assay [12]. Besides, the inhibition in [13] was 21%. The IC50 worked out at 4670 nM in [14] and 120 nM in assay [15].
For `Cc1[nH]c(-c2ccccc2)c(-c2ccccc2)c1C(=O)c1coc2ccc(O)cc12`, the inhibition turned out to be 32% in assay [1]; 90% in assay [2]; 4% in assay [3]; 3% in [4]; 3% in assay [5]; 24% in [6]. The inhibition worked out at 3% in assay [7]; 23% in assay [8]; 2% in assay [9]; 21% in [10]; 32% in assay [11]; 32% in [12]. In assay [13], this molecule had an inhibition of 32%. Further, the half-inhibitory concentration (IC50) was 3670 nM in assay [14] and 450 nM in [15].
